We go through 59 compounds from patent US20220306630A1, “AGONISTS OF ROR GAMMAt” (BRISTOL-MYERS SQUIBB COMPANY, priority 2019, published 2022).

Molecules are shown by their SMILES.

This assay has as its target T1, RORgT (Homo sapiens, UniProt P51449).
T1 construct: Gal4 (fusion partner); expressed in transfected cells; host or cells: engineered Jurkat cells (Jurkat pEx/Gal/hRORγ CLBD/HYG pG5luc/blast)
T1 sequence (P51449 267-516): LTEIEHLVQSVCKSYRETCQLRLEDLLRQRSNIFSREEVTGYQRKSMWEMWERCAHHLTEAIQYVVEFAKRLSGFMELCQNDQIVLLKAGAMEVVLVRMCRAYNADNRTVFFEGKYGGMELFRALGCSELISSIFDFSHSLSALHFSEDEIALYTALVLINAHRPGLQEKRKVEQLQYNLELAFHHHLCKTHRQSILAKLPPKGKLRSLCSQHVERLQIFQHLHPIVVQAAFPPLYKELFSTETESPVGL
Briefly: RORgT Gal4 Luciferase Reporter Gene Assay. The assay is classed as cell-based. Conditions: engineered Jurkat cells overexpressing RORgT (LBD or full length) with Gal4 Luc reporter; 18 hours at 37° C.; 40 μM to 0.67 nM; read-out: RORg_GAL4 EC50. The essentials:
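Cells exposed to compound 18 hours at 37° C, then lysed for luciferase luminescence. Inhibition of constitutive activity expressed as percent reduction of signal window relative to a control compound.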

By EC50 is commonly meant the concentration giving half of the maximal effect. Consider `COc1ccc(Oc2c(Cl)cc(NC(=O)Cc3cccc(S(C)(=O)=O)c3)cc2Cl)cc1C(C)C` [Example 231], for which the EC50 stood at 26 nM. On to `CC(c1cc(F)cc(Oc2c(Cl)cc(NC(=O)Cc3ccc(S(C)(=O)=O)cc3)cc2Cl)c1)C(F)(F)F` (centres unmarked) [Example 353], for which the EC50 came to 14 nM. For the compound `COc1ccc(Oc2c(Cl)cc(NC(=O)Cc3ccnc(S(C)(=O)=O)c3)cc2Cl)cc1C(C)C` [Example 241], the EC50 is 64 nM.

For `COc1ccc(Oc2c(Cl)cc(NC(=O)CC3CCCN(S(=O)(=O)C(C)C)C3)cc2Cl)cc1C(C)C` (centres unmarked) [Example 316], the EC50 came to 943 nM. To `COc1ccc(Oc2c(Cl)cc(NC(=O)CC3CCCN(S(=O)(=O)C4CC4)C3)cc2Cl)cc1C(C)C` (centres unmarked) [Example 317] belongs 95 nM; to `COc1ccc(Oc2c(Cl)cc(NC(=O)Cc3cccc(S(N)(=O)=O)c3)cc2Cl)cc1C(C)C` [Example 244], 37 nM. For `COc1ccc(Oc2c(Cl)ccc(CNC(=O)CN3CCN(S(N)(=O)=O)CC3)c2Cl)cc1C(C)C` [Example 90], the EC50 was 13 nM. Regarding `CC(c1cc(F)cc(Oc2c(Cl)ccc(C(=O)N3CCC4(CC3)CN(S(C)(=O)=O)C4)c2Cl)c1)C(F)(F)F` (centres unmarked) [Example 357], the EC50 is 11 nM. As for `COc1ccc(Oc2c(Cl)cc(NC(=O)[C@H]3CC[C@@H](C(=O)OC)CC3)cc2Cl)cc1C(C)C` [Example 339], the EC50 came to 983 nM. As for `COc1ccc(Oc2c(Cl)ccc(C(=O)NCC3CN(S(C)(=O)=O)C3)c2Cl)cc1C(C)C` [Example 91], the EC50 is 88 nM. In the case of `COc1ccc(Oc2c(Cl)ccc(C(=O)Nc3cccc4cnccc34)c2Cl)cc1C(C)C` [Example 207] it was 63 nM; in that of `CCS(=O)(=O)N1CC2(CCN(C(=O)c3ccc(Cl)c(Oc4cc(F)cc(C(C)C)c4)c3Cl)CC2)C1` [Example 124], 121 nM.

As for `COc1ccc(Oc2c(Cl)cc(NC(=O)CN3CCN(S(=O)(=O)C4CC4)CC3)cc2Cl)cc1C(C)C` [Example 315], the EC50 came out at 88 nM. In the case of `COc1ncc(Oc2c(Cl)cc(NC(=O)CC3CCN(S(=O)(=O)CCl)CC3)cc2Cl)cc1C(C)C` [Example 127] it was 35 nM; in that of `CC(C)c1cc(F)cc(Oc2c(Cl)ccc(C(=O)NCc3ccc(S(C)(=O)=O)cc3)c2Cl)c1` [Example 122], 3.6 nM. As for `COc1ncc(Oc2c(Cl)ccc(NC(=O)Cc3cccc(S(C)(=O)=O)c3)c2Cl)cc1C(C)C` [Example 141], the EC50 turned out to be 182 nM.

`COc1ccc(Oc2c(Cl)cc3[nH]c(-c4ccccc4)nc3c2Cl)cc1C(C)C` [Example 35, 4,6-dichloro-5-(3-isopropyl-4-methoxyphenoxy)-2-phenyl-1H-benzo[d]imidazole]: the EC50 is 2050 nM. For `COc1ccc(Oc2c(Cl)ccc(C(=O)N3CCC(c4ccccc4)CC3)c2Cl)cc1C(C)C` [Example 176], the EC50 came out at 83 nM. As for `CS(=O)(=O)N1CCN(CC(=O)Nc2cc(Cl)c(Oc3ccc(F)c(C4CC4)c3)c(Cl)c2)CC1` [Example 271], the EC50 is 78 nM. With `CC(C)c1cc(Oc2c(Cl)cc(NC(=O)Cc3cccnc3)cc2Cl)ccc1C1CC1` [Example 324], the EC50 is 214 nM. With `COc1ccc(Oc2c(Cl)ccc(C(=O)NCCc3cccnc3)c2Cl)cc1C(C)C` [Example 76], the EC50 came to 922 nM.

As for `COc1ccc(Oc2c(Cl)cc(NC(=O)OCCn3ccnc3)cc2Cl)cc1C(C)C` [Example 235], the EC50 was 1270 nM. Take `CC1(c2cc(F)cc(Oc3c(Cl)cc(NC(=O)Cc4ccc(S(C)(=O)=O)cc4)cc3Cl)c2)CC1` [Example 274]: the EC50 stood at 3.9 nM. For the compound `CC(C)c1cc(F)cc(Oc2c(Cl)ccc(C(=O)NC(C)c3ccc(S(C)(=O)=O)cc3)c2Cl)c1` (centres unmarked) [Example 142], the EC50 turned out to be 71 nM. As to `COc1ccc(Oc2c(Cl)ccc(C(=O)NCC#N)c2Cl)cc1C(C)C` [Example 201], the EC50 is 511 nM. To `COCCC(=O)Nc1cc(Cl)c(Oc2ccc(OC)c(C(C)C)c2)c(Cl)c1` [Example 300] belongs 591 nM; to `COC(=O)N1CCC(CNC(=O)c2ccc(Cl)c(Oc3ccc(OC)c(C(C)C)c3)c2Cl)CC1` [Example 111], 936 nM. `COc1ccc(Oc2c(Cl)ccc(C(=O)NCCn3ccnc3)c2Cl)cc1C(C)C` [Example 19, N-(2-(1H-imidazol-1-yl)ethyl)-2,4-dichloro-3-(3-isomethoxyphenoxy)benzamide]: the concentration giving a half-maximal response (EC50) stood at 396 nM. Take `CC(c1cc(F)cc(Oc2c(Cl)cc(NC(=O)Cc3ccc(S(C)(=O)=O)cc3)cc2Cl)c1)C(F)(F)F` (centres unmarked) [Example 354]: the EC50 came out at 3.5 nM. With `COc1ncc(Oc2c(Cl)ccc(C(=O)NCc3ccc(S(C)(=O)=O)cc3)c2Cl)cc1C(C)C` [Example 123], the EC50 is 5.4 nM.

Regarding `CCS(=O)(=O)N[C@H]1CCN(CC(=O)Nc2cc(Cl)c(Oc3ccc(OC)c(C(C)C)c3)c(Cl)c2)C1` [Example 164], the EC50 was 80 nM. Consider `CCS(=O)(=O)N[C@@H]1CCCN(CC(=O)Nc2cc(Cl)c(Oc3ccc(OC)c(C(C)C)c3)c(Cl)c2)C1` [Example 167], for which the concentration for a half-maximal effect (EC50) was 245 nM. In the case of `COc1ccc(Oc2c(Cl)cc(NC(=O)CN3CC4(C3)CN(S(=O)(=O)C3CC3)C4)cc2Cl)cc1C(C)C` [Example 229], the EC50 was found to be 891 nM. To `COc1ccc(Oc2c(Cl)cc(N3CC(CNS(C)(=O)=O)OC3=O)cc2Cl)cc1C(C)C` (centres unmarked) [Example 254] belongs 655 nM; to `CC(C)(F)c1cc(F)cc(Oc2c(Cl)cc(NC(=O)Cc3cccc(S(C)(=O)=O)c3)cc2Cl)c1` [Example 53, N-(3,5-dichloro-4-(3-fluoro-5-(2-fluoropropan-2-yl)phenoxy)phenyl)-2-(3-(methylsulfonyl)phenyl)acetamide], 40 nM; to `COc1ccc(Oc2c(Cl)cc(NC(=O)CC3CCCNC3)cc2Cl)cc1C(C)C` (racemic) [Example 32, N-(3,5-dichloro-4-(3-isopropyl-4-methoxyphenoxy)phenyl)-2-(piperidin-3-yl)acetamide], 296 nM. For the compound `COc1ccc(Oc2c(Cl)cc(NC(=O)CN3CC(NS(=O)(=O)C4CC4)C3)cc2Cl)cc1C(C)C` [Example 174], the EC50 was determined as 286 nM. Consider `CCOc1ccc(Oc2c(Cl)cc(NC(=O)Cc3cccnc3)cc2Cl)cc1C(C)C` [Example 50, N-(3,5-dichloro-4-(4-ethoxy-3-isopropylphenoxy)phenyl)-2-(pyridin-3-yl)acetamide], for which the EC50 came to 75 nM. For the compound `COc1ccc(Oc2c(Cl)ccc(C(=O)N3CCN(C(C)=O)CC3)c2Cl)cc1C(C)C` [Example 203], the EC50 was found to be 129 nM. Take `CC(C)c1cc(F)cc(Oc2c(Cl)ccc(C(=O)N3CCC(S(C)(=O)=O)CC3)c2Cl)c1` [Example 264]: the EC50 amounted to 39 nM.

As for `COc1ccc(Oc2c(Cl)ccc(C(=O)N3CCC4(CCN(S(C)(=O)=O)CC4)C3)c2Cl)cc1C(C)C` [Example 107], the EC50 came to 35 nM. `COc1ncc(Oc2c(Cl)cc(NC(=O)CC3CCN(S(N)(=O)=O)CC3)cc2Cl)cc1C(C)C` [Example 121]: the EC50 is 13 nM.

As to `COc1ccc(Oc2c(Cl)ccc(C(=O)N3CCC(N(C)C)CC3)c2Cl)cc1C(C)C` [Example 192], the EC50 was 89 nM. In the case of `COc1ncc(Oc2c(Cl)cc(NC(=O)CC3CCN(C(=O)C(F)(F)F)CC3)cc2Cl)cc1C(C)C` [Example 74] it was 49 nM; in that of `COc1ccc(Oc2c(Cl)ccc(CNC(=O)CC3CCN(C(=O)C(F)(F)F)CC3)c2Cl)cc1C(C)C` [Example 175], 345 nM; in that of `COc1ccc(Oc2c(Cl)ccc(C(=O)NCc3ccc(S(N)(=O)=O)nc3)c2Cl)cc1C(C)C` [Example 101], 14 nM.

As to `COc1ccc(Oc2c(F)cc(NC(=O)Cc3cccnc3)cc2F)cc1C(C)C` [Example 40, N-(3,5-difluoro-4-(3-isopropyl-4-methoxyphenoxy)phenyl)-2-(pyridin-3-yl)acetamide], the EC50 amounted to 2450 nM.

Regarding `COc1ccc(Oc2c(Cl)cc(NC(=O)CN(C)C)cc2Cl)cc1C(C)C` [Example 280], the EC50 is 656 nM. For the compound `COc1ccc(Oc2c(Cl)cc(NC(=O)Cc3cnccn3)cc2Cl)cc1C(C)C` [Example 286], the EC50 was found to be 316 nM. For `COc1ccc(Oc2c(Cl)cc(C(=O)NCc3cnc(C)cn3)cc2Cl)cc1C(C)C` [Example 155], the EC50 amounted to 4750 nM. With `COc1ccc(Oc2c(Cl)ccc(C(=O)N3CCN(S(C)(=O)=O)CC3)c2Cl)cc1C(C)C` [Example 65], the EC50 was 69 nM. In the case of `COc1ccc(Oc2c(Cl)ccc(C(=O)N(C)Cc3ccc(S(C)(=O)=O)cc3)c2Cl)cc1C(C)C` [Example 67], the concentration giving a half-maximal response (EC50) turned out to be 116 nM. With `COc1ccc(Oc2c(Cl)cc(NC(=O)CCc3ccccc3)cc2Cl)cc1C(C)C` [Example 284], the EC50 was found to be 40000 nM. Turning to `COc1ccc(Oc2c(Cl)ccc(C(=O)NC3CCN(Cc4ccccc4)C3)c2Cl)cc1C(C)C` (centres unmarked) [Example 193], the EC50 turned out to be 866 nM. `CNC(=O)c1ccc(CNC(=O)c2ccc(Cl)c(Oc3ccc(OC)c(C(C)C)c3)c2Cl)cc1` [Example 102]: the EC50 amounted to 455 nM. As for `CCS(=O)(=O)N[C@H]1CCCN(CC(=O)Nc2cc(Cl)c(Oc3ccc(OC)c(C(C)C)c3)c(Cl)c2)C1` [Example 172], the EC50 is 49 nM.

On to `CCS(=O)(=O)N1CCC[C@H](CC(=O)Nc2cc(Cl)c(Oc3ccc(OC)c(C(C)C)c3)c(Cl)c2)C1` [Example 323], for which the EC50 is 92 nM.

On to `COc1ccc(Oc2c(Cl)ccc(CNC(=O)C3CCN(S(=O)(=O)C4CC4)CC3)c2Cl)cc1C(C)C` [Example 97], for which the EC50 amounted to 14 nM.

`COc1ccc(Oc2c(Cl)cc(NC(=O)Cc3cnc[nH]3)cc2Cl)cc1C(C)C` [Example 250]: the EC50 amounted to 500 nM.
